Assays:
Assay type in all cases: in vivo, human
[1] = system: Alzheimer's patients; test: CIBIC+ in patients with mild to moderate AD, 24 week placebo-controlled study (Example 2); conditions: 24 weeks
Experimental: Analysis for the full intent to treat (ITT) population was performed on 511 subjects who were randomly allocated into one of four specific treatment regimes. Genotyping analysis was performed on 63% (323/511) of the ITT population.
Patient population included Caucasian males and females between 50-85 years of age who had been diagnosed with mild to moderate AD, were not receiving any medications which could adversely prejudice the study (e.g. PPAR-gamma agonists or conventional AD medicaments) or had any other potentially prejudicial ailments (e.g. diabetes or major psychiatric disorders).
(§1) Patients received either placebo or one of three dosage levels of extended release rosiglitazone provided once daily (2 mg, 4 mg and 8 mg tablets as described in Example 1). Patients were examined using the cognitive Alzheimer's Disease Assessment Scale (ADAS-cog; for further information see Rosen W G et al. Am. J. Psychiatry. 1984 141:1356-1364) and the Clinician's Interview-Based Impression of Change with caregiver information (CIBIC+; for further information see Knopman D S et al. Neurology 1994 44: 2315-2321); and secondary assessments were performed using: the Disability Assessment for Dementia (DAD, for further information see Gelinas L et al. Am J Occup Ther 1999 53: 471-81) and the Neuropsychiatric Inventory test (NPI, for further information see Cummings et al (1994) Neurology 44, 2308-2314) at the start of the study (baseline) and during the course of the study (after 8, 16 and 24 weeks of treatment).
APOE genotype was determined using the TaqMan PCR-based method of McLeod et al 2001 infra.
All statistics reflect last observed assessment carried forward (LOCF) measurements.
Higher CIBIC+ scores indicate a greater level of decline with scores below 4 denoting clinical improvement and scores above 4 denoting clinical decline.

[2] = system: Alzheimer's patients; test: Disability Assessment for Dementia (DAD), Example 2 study; conditions: week 24
Experimental: as §1
Similar results were identified using the Disability Assessment for Dementia (DAD) test (Gelinas L et al. Am J Occup Ther 1999 53: 471-81). A prospectively defined test for interaction between APOE4 carriage status and DAD scores at week 24 was significant (P=0.006).

[3] = system: Alzheimer's patients; test: Neuropsychiatric Inventory (NPI), Example 2 study; conditions: week 24
Experimental: as §1
Similar results were identified using the Neuropsychiatric Inventory (NPI) test (Cummings et al (1994) Neurology 44, 2308-2314). A prospectively defined test for interaction between APOE4 carriage status and NPI scores at week 24 was significant ([…]).

[4] = Table 13, PGx ITT population, 0 APOE4 copies, 4 mg
[5] = Table 13, PGx ITT population, 0 APOE4 copies, 8 mg
[6] = Table 13, PGx ITT population, 1 APOE4 copy, 2 mg
[7] = Table 13, PGx ITT population, 1 APOE4 copy, 4 mg
[8] = Table 13, PGx ITT population, 1 APOE4 copy, 8 mg
[9] = Table 13, PGx ITT population, 2 APOE4 copies, 2 mg
[10] = Table 13, PGx ITT population, 2 APOE4 copies, 4 mg
[11] = Table 13, PGx ITT population, 2 APOE4 copies, 8 mg

CN(CCOc1ccc(CC2SC(=O)NC2=O)cc1)c1ccccn1 (stereo not drawn) [Rosi, 5-[4-[2-(N-methyl-N-(2-pyridyl)amino)ethoxy]benzyl]thiazolidine-2,4-dione]
model adjusted CIBIC+ LSMean (SE) ([1]; Table 13, PGx ITT population, 0 APOE4 copies, 2 mg): 3.47 (0.18)
CIBIC+ Treatment Difference (90% confidence limits) Rosi − Placebo [1, 4]: −0.19 (−0.60, 0.22)
model adjusted CIBIC+ LSMean (SE) [1, 4]: 3.76 (0.18)
CIBIC+ Treatment Difference (90% confidence limits) Rosi − Placebo [1, 5]: −0.19 (−0.61, 0.22)
model adjusted CIBIC+ LSMean (SE) [1, 5]: 3.76 (0.18)
CIBIC+ Treatment Difference (90% confidence limits) Rosi − Placebo [1, 6]: 0.59 (0.08, 1.11)
model adjusted CIBIC+ LSMean (SE) [1, 6]: 4.47 (0.23)
CIBIC+ Treatment Difference (90% confidence limits) Rosi − Placebo [1, 7]: 0.23 (−0.28, 0.74)
model adjusted CIBIC+ LSMean (SE) [1, 7]: 4.11 (0.23)
CIBIC+ Treatment Difference (90% confidence limits) Rosi − Placebo [1, 8]: −0.20 (−0.73, 0.34)
model adjusted CIBIC+ LSMean (SE) [1, 8]: 3.68 (0.25)
CIBIC+ Treatment Difference (90% confidence limits) Rosi − Placebo [1, 9]: −0.92 (−2.20, 0.37)
model adjusted CIBIC+ LSMean (SE) [1, 9]: 3.42 (0.58)
CIBIC+ Treatment Difference (90% confidence limits) Rosi − Placebo [1, 10]: −0.39 (−1.55, 0.77)
model adjusted CIBIC+ LSMean (SE) [1, 10]: 3.95 (0.47)
CIBIC+ Treatment Difference (90% confidence limits) Rosi − Placebo [1, 11]: −0.07 (−1.08, 0.95)
model adjusted CIBIC+ LSMean (SE) [1, 11]: 4.27 (0.34)
model adjusted CIBIC+ LSMean (SE) ([1]; Table 13A updated analysis with additional subjects, 0 APOE4 copies, 2 mg): 3.51 (0.17)
model adjusted CIBIC+ LSMean (SE) ([1]; Table 13A updated analysis with additional subjects, 0 APOE4 copies, 4 mg): 3.75 (0.17)
model adjusted CIBIC+ LSMean (SE) ([1]; Table 13A updated analysis with additional subjects, 0 APOE4 copies, 8 mg): 3.75 (0.18)
model adjusted CIBIC+ LSMean (SE) ([1]; Table 13A updated analysis with additional subjects, 1 APOE4 copy, 2 mg): 4.32 (0.21)
model adjusted CIBIC+ LSMean (SE) ([1]; Table 13A updated analysis with additional subjects, 1 APOE4 copy, 4 mg): 3.97 (0.22)
model adjusted CIBIC+ LSMean (SE) ([1]; Table 13A updated analysis with additional subjects, 1 APOE4 copy, 8 mg): 3.70 (0.24)
model adjusted CIBIC+ LSMean (SE) ([1]; Table 13A updated analysis with additional subjects, 2 APOE4 copies, 2 mg): 3.46 (0.57)
model adjusted CIBIC+ LSMean (SE) ([1]; Table 13A updated analysis with additional subjects, 2 APOE4 copies, 4 mg): 3.93 (0.47)
model adjusted CIBIC+ LSMean (SE) ([1]; Table 13A updated analysis with additional subjects, 2 APOE4 copies, 8 mg): 4.29 (0.33)
CIBIC+ Treatment Difference (90% confidence limits) Rosi − Placebo ([1]; Table 13A updated analysis, 0 APOE4 copies, 2 mg): −0.46 (−0.85, −0.07)
CIBIC+ Treatment Difference (90% confidence limits) Rosi − Placebo ([1]; Table 13A updated analysis, 0 APOE4 copies, 4 mg): −0.22 (−0.62, 0.18)
CIBIC+ Treatment Difference (90% confidence limits) Rosi − Placebo ([1]; Table 13A updated analysis, 0 APOE4 copies, 8 mg): −0.22 (−0.62, 0.19)
CIBIC+ Treatment Difference (90% confidence limits) Rosi − Placebo ([1]; Table 13A updated analysis, 1 APOE4 copy, 2 mg): 0.39 (−0.09, 0.87)
CIBIC+ Treatment Difference (90% confidence limits) Rosi − Placebo ([1]; Table 13A updated analysis, 1 APOE4 copy, 4 mg): 0.04 (−0.44, 0.53)
CIBIC+ Treatment Difference (90% confidence limits) Rosi − Placebo ([1]; Table 13A updated analysis, 1 APOE4 copy, 8 mg): −0.22 (−0.74, 0.29)
CIBIC+ Treatment Difference (90% confidence limits) Rosi − Placebo ([1]; Table 13A updated analysis, 2 APOE4 copies, 2 mg): −0.91 (−2.19, 0.36)
CIBIC+ Treatment Difference (90% confidence limits) Rosi − Placebo ([1]; Table 13A updated analysis, 2 APOE4 copies, 4 mg): −0.45 (−1.59, 0.70)
CIBIC+ Treatment Difference (90% confidence limits) Rosi − Placebo ([1]; Table 13A updated analysis, 2 APOE4 copies, 8 mg): −0.09 (−1.09, 0.92)
DAD scores, pattern of results ([2]; APOE4+ subjects): demonstrated no improvement
DAD scores, pattern of results ([2]; APOE4− subjects): demonstrated improvement on DAD
NPI scores, pattern of results ([3]; APOE4+ subjects): demonstrated no improvement
NPI scores, pattern of results ([3]; APOE4− subjects): demonstrated improvement on NPI

Source: patent US20080226719A1, “Combination of Rosiglitazone and Donepezil for Improvement of Cognitive Function” (priority 2005, published 2008)
